Results: article PMC8480901 (PLoS ONE, 2021)
Values joined by “and” are separate entries in the source; they are usually repeats but may differ in a detail not shown here. Equal entries are not always repeated.

System: human PBMCs
Assay: LPS-induced cytokine and chemokine levels in human PBMC supernatant (Luminex, ELISA)
Format: cell-based
Conditions: for CCl2, % reduction / CXCL1 % reduction / CXCL2 % reduction / MMP9 % reduction / CCl2, Mean / CXCL1, Mean / CXCL2, Mean / MMP9, Mean / CCl2, individual value / CXCL1, individual value / CXCL2, individual value / MMP9, individual value: LPS-stimulated PBMC supernatant; for CCl2, Mean / CXCL1, Mean / CXCL2, Mean / MMP9, Mean: sample size 2; for CCl2, individual value / CXCL1, individual value / CXCL2, individual value / MMP9, individual value: single replicate
[1] = LPS-stimulated human PBMC supernatant, 0.03 µM

CC[C@H]1OC(=O)[C@H](C)[C@@H](O[C@H]2C[C@@](C)(OC)[C@@H](O)[C@H](C)O2)[C@H](C)[C@@H](O[C@@H]2O[C@H](C)C[C@H](N(C)C)[C@H]2O)[C@](C)(O)C[C@@H](C)CN(C)[C@H](C)[C@@H](O)[C@]1(C)O [Azithromycin]
CCl2, % reduction (0.03 µM): -5.55%
CXCL1 % reduction (0.03 µM): -4.76%
CXCL2 % reduction (0.03 µM): 2.43%
MMP9 % reduction (0.03 µM): -1.46%
CCl2, Mean (0.03 µM): 1334 pg/mL
CXCL1, Mean (0.03 µM): 6234 pg/mL
CXCL2, Mean (0.03 µM): 4935 pg/mL
MMP9, Mean (0.03 µM): 3019 pg/mL
CCl2, individual value (0.03 µM): 1307 pg/mL and 1361 pg/mL
CXCL1, individual value (0.03 µM): 6199 pg/mL and 6268 pg/mL
CXCL2, individual value (0.03 µM): 5023 pg/mL and 4847 pg/mL
MMP9, individual value (0.03 µM): 3072 pg/mL and 2966 pg/mL
CCl2, % reduction (0.1 µM): -0.293%
CXCL1 % reduction (0.1 µM): -0.522%
CXCL2 % reduction (0.1 µM): 4.49%
MMP9 % reduction (0.1 µM): -3.72%
CCl2, Mean (0.1 µM): 1270 pg/mL
CXCL1, Mean (0.1 µM): 5984 pg/mL
CXCL2, Mean (0.1 µM): 4831 pg/mL
MMP9, Mean (0.1 µM): 3056 pg/mL
CCl2, individual value (0.1 µM): 1278 pg/mL and 1261 pg/mL
CXCL1, individual value (0.1 µM): 6035 pg/mL and 5932 pg/mL
CXCL2, individual value (0.1 µM): 4923 pg/mL and 4739 pg/mL
MMP9, individual value (0.1 µM): 3040 pg/mL and 3071 pg/mL
CCl2, % reduction (0.3 µM): -5.66%
CXCL1 % reduction (0.3 µM): -5%
CXCL2 % reduction (0.3 µM): 1.16%
MMP9 % reduction (0.3 µM): -0.427%
CCl2, Mean (0.3 µM): 1335 pg/mL
CXCL1, Mean (0.3 µM): 6237 pg/mL
CXCL2, Mean (0.3 µM): 4999 pg/mL
MMP9, Mean (0.3 µM): 3002 pg/mL
CCl2, individual value (0.3 µM): 1355 pg/mL and 1316 pg/mL
CXCL1, individual value (0.3 µM): 6416 pg/mL and 6058 pg/mL
CXCL2, individual value (0.3 µM): 4805 pg/mL and 5194 pg/mL
MMP9, individual value (0.3 µM): 2940 pg/mL and 3064 pg/mL
CCl2, % reduction (1 µM): -3.46%
CXCL2 % reduction (1 µM): 5.46%
MMP9 % reduction (1 µM): 0.166%
CCl2, Mean (1 µM): 1309 pg/mL
CXCL1, Mean (1 µM): 6015 pg/mL
CXCL2, Mean (1 µM): 4782 pg/mL
MMP9, Mean (1 µM): 2992 pg/mL
CCl2, individual value (1 µM): 1330 pg/mL and 1287 pg/mL
CXCL1, individual value (1 µM): 6000 pg/mL and 6030 pg/mL
CXCL2, individual value (1 µM): 4905 pg/mL and 4659 pg/mL
MMP9, individual value (1 µM): 2945 pg/mL
CCl2, % reduction (3 µM): -21%
CXCL1 % reduction (3 µM): -11%
CXCL2 % reduction (3 µM): -6%
MMP9 % reduction (3 µM): -3.25%
CCl2, Mean (3 µM): 1528 pg/mL
CXCL1, Mean (3 µM): 6579 pg/mL
CXCL2, Mean (3 µM): 5371 pg/mL
MMP9, Mean (3 µM): 3048 pg/mL
CCl2, individual value (3 µM): 1488 pg/mL and 1567 pg/mL
CXCL1, individual value (3 µM): 6461 pg/mL and 6697 pg/mL
CXCL2, individual value (3 µM): 5747 pg/mL and 4996 pg/mL
MMP9, individual value (3 µM): 3040 pg/mL and 3056 pg/mL
CCl2, % reduction (10 µM): -56%
CXCL1 % reduction (10 µM): -10%
CXCL2 % reduction (10 µM): 2%
MMP9 % reduction (10 µM): 7.45%
CCl2, Mean (10 µM): 1950 pg/mL
CXCL1, Mean (10 µM): 6547 pg/mL
CXCL2, Mean (10 µM): 4953 pg/mL
MMP9, Mean (10 µM): 2874 pg/mL
CCl2, individual value (10 µM): 1899 pg/mL and 2002 pg/mL
CXCL1, individual value (10 µM): 6457 pg/mL and 6637 pg/mL
CXCL2, individual value (10 µM): 4894 pg/mL and 5012 pg/mL
MMP9, individual value (10 µM): 2884 pg/mL and 2864 pg/mL
CCl2, % reduction (30 µM): -138%
CXCL1 % reduction (30 µM): 8%
CXCL2 % reduction (30 µM): 10%
MMP9 % reduction (30 µM): 5%
CCl2, Mean (30 µM): 2956 pg/mL
CXCL1, Mean (30 µM): 5474 pg/mL
CXCL2, Mean (30 µM): 4573 pg/mL
MMP9, Mean (30 µM): 2917 pg/mL
CCl2, individual value (30 µM): 3047 pg/mL and 2865 pg/mL
CXCL1, individual value (30 µM): 5594 pg/mL and 5354 pg/mL
CXCL2, individual value (30 µM): 4609 pg/mL and 4537 pg/mL
MMP9, individual value (30 µM): 2925 pg/mL and 2908 pg/mL
CCl2, % reduction (100 µM): -63%
CXCL1 % reduction (100 µM): 55%
CXCL2 % reduction (100 µM): 16%
CCl2, Mean (100 µM): 2038 pg/mL
CXCL1, Mean (100 µM): 2693 pg/mL
CXCL2, Mean (100 µM): 4264 pg/mL
MMP9, Mean (100 µM): 2975 pg/mL
CCl2, individual value (100 µM): 1970 pg/mL and 2105 pg/mL
CXCL1, individual value (100 µM): 2693 pg/mL
CXCL2, individual value (100 µM): 4200 pg/mL and 4328 pg/mL
MMP9, individual value (100 µM): 2977 pg/mL and 2972 pg/mL
GM-CSF % reduction [1]: 1.46%
GM-CSF [pg/mL], Mean [1]: 648 pg/mL
GM-CSF [pg/mL], individual value [1]: 664 pg/mL and 632 pg/mL
IL-1β % reduction [1]: 4.49%
IL-1β [pg/mL], Mean [1]: 12211 pg/mL
IL-1β [pg/mL], individual value [1]: 11901 pg/mL
IL-6 % reduction [1]: -0.732%
IL-6 [pg/mL], Mean [1]: 35164 pg/mL
IL-6 [pg/mL], individual value [1]: 34554 pg/mL and 35775 pg/mL
IL-8 % reduction [1]: -1.46%
IL-8 [pg/mL], Mean [1]: 3019 pg/mL
IL-8 [pg/mL], individual value [1]: 3072 pg/mL and 2966 pg/mL
TNF-α % reduction [1]: -24%
